Data: publication PMC9729869, “Functional verification and characterization of a type-III geranylgeranyl diphosphate synthase gene from Sporobolomyces pararoseus NGR” (Frontiers in Microbiology, 2022)

Molecular target: T1, CrtE (geranylgeranyl diphosphate synthase, GGPPS) (Sporobolomyces pararoseus, UniProt A0A2P1HA31)
T1 construct: dimer only in the predicted model
Assay: TLC of dephosphorylated product (GGOH)
Format: biochemical

T1 sequence (A0A2P1HA31 1-377): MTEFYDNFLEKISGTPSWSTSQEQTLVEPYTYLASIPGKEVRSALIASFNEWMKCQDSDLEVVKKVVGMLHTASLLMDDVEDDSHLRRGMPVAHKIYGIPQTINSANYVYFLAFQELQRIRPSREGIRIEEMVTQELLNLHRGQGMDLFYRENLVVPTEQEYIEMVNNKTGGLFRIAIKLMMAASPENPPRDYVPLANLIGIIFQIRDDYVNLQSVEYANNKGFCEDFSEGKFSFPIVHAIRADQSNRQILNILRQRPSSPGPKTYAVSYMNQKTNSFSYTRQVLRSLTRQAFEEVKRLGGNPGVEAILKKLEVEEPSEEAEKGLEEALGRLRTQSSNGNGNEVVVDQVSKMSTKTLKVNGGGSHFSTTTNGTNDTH

Row | SMILES | TLC of dephosphorylated product (GGOH) (50 uM FPP, 50 uM IPP, 10 ng CrtE in 200 uL, 100 mM HEPES with 5 mM MgCl2 (enzyme exchange buffer) pH 7.5, 28 C, 2 h, Trx/His/S tags kept) | TLC of dephosphorylated product (GGOH) (50 uM IPP with 50 uM allylic co-substrate (FPP, GPP or DMAPP), else same)
1 | CC(C)=CCC/C(C)=C/CC/C(C)=C/COP(=O)(O)OP(=O)(O)O [FPP, farnesyl diphosphate] | largest number of GGPP was produced using FPP | –
2 | C=C(C)CCOP(=O)(O)OP(=O)(O)O [IPP, isopentenyl diphosphate] | – | using three different allylic substrates and IPP as substrates for the reaction
